Source: article PMC4947982 (Journal of Medicinal Chemistry, 2016)

Settings: 5 mM DMSO-solutions

| solubility in DMSO | SMILES |
| --- | --- |
| low solubility | CC(C)(C)c1ccc(-c2cn(-c3cc(C(=O)O)cc(-c4ccc(C5CCNCC5)cc4)c3)nn2)cc1 [Compound 79, 5-(4-(4-(tert-Butyl)phenyl)-1H-1,2,3-triazol-1-yl)-4′-(piperidin-4-yl)-[1,1′-biphenyl]-3-carboxylic Acid] |
| low solubility | CCCCCOc1ccc(-c2cn(-c3cc(C(=O)O)cc(-c4ccc(C5CCNCC5)cc4)c3)nn2)cc1 [Compound 82, 5-(4-(4-(Pentyloxy)phenyl)-1H-1,2,3-triazol-1-yl)-4′-(piperidin-4-yl)-[1,1′-biphenyl]-3-carboxylic Acid] |
| low solubility | COc1ccc(-c2cn(-c3cc(C(=O)O)cc(-c4ccc(C5CCNCC5)cc4)c3)nn2)cc1OC [Compound 95, 5-(4-(3,4-Dimethoxyphenyl)-1H-1,2,3-triazol-1-yl)-4′-(piperidin-4-yl)-[1,1′-biphenyl]-3-carboxylic Acid] |
| low solubility | O=C(O)c1cc(-c2ccc(C3CCNCC3)cc2)cc(-n2cc(-c3cc4ccccc4o3)nn2)c1 [Compound 101, 5-(4-(Benzofuran-2-yl)-1H-1,2,3-triazol-1-yl)-4′-(piperidin-4-yl)-[1,1′-biphenyl]-3-carboxylic Acid] |
